Paper PMC10578354 (Journal of Medicinal Chemistry, 2023)

System: T24 and 5637 bladder cancer cell lines and healthy bladder epithelial cells (BdECs)
Test: MTT proliferation assay
Type: cell-based
Details: T24 and 5637 vs BdEC, 72 h treatment, Figure 6B

## CN(C)CCOc1cccc(NC(=O)Cc2c[nH]c3cc(F)ccc23)c1 [NMX-10095, N-(3-(2-(Dimethylamino)ethoxy)phenyl)-2-(6-fluoro-1H-indol-3-yl)acetamide]
  inhibition of cell proliferation, cancer vs healthy cells: differential inhibition of cell proliferation
